According to patent US11472798B2 (Mission Therapeutics Limited, priority 2014, dated 2022):

These molecules were tested against T1, UCHL1 (Homo sapiens, UniProt P09936) (assay: UCHL1 biochemical IC50 assay (fluorescence polarisation)). Conditions: 30 min enzyme/compound pre-incubation at room temp, read after 2 hr incubation, read-out: Activity range (UCHL1 biochemical IC50 assay).
T1 construct: made in house; host or cells: HEK293T
T1 sequence (P09936 1-223): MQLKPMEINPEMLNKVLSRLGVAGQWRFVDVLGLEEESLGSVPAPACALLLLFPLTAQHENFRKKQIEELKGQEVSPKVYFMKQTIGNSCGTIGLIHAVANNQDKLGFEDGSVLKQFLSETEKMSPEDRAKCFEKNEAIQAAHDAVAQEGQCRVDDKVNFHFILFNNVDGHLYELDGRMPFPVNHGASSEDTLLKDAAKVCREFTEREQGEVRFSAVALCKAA
Text: Biological Activity of Compounds of the Invention Abbreviations: TAMRA carboxytetramethylrhodamine PCR polymerase chain reaction PBS phosphate buffered saline EDTA ethylenediaminetetraacetic acid Tris 2-amino-2-(hydroxymethyl)-1,3-propanediol NP-40 Nonidet P-40, octylphenoxypolyethoxyethanol BSA bovine serum albumin In Vitro UCHL1 Inhibition Assay Expression and Purification of UCHL1
The UCHL1 construct was PCR amplified and cloned into a pFLAG-CMV-6a vector (Sigma-Aldrich) with an N-terminal FLAG tag. HEK293T cells were transfected with FLAG-UCHL1 using TransIT-LT1 transfection reagent (Mirus) according to the manufacturer's instructions. Cells were harvested 40 hours after transfection. Cells were washed once with PBS and scraped in lysis buffer (50 mM Tris, pH 7.5, 150 mM NaCl, 3 mM EDTA, 0.5% NP40, 10% glycerol, 5 mM beta-mercaptoethanol, protease inhibitors (complete mini, Roche) and phosphatase inhibitors (PhosSTOP mini, Roche). Lysates were incubated for 30 min on ice and centrifuged at 1200 rpm for 10 min at 4° C. Soluble supernatant was added to FLAG affinity resin (EZview Rad ANTI-FLAG M2 affinity gel, Sigma-Aldrich) equilibrated in low salt buffer (20 mM Tris, pH 7.5, 150 mM NaCl, 0.5 mM EDTA, 5 mM beta-mercaptoethanol) and incubated at 4° C. for 3 hours rotating. The resin was spun at 2000 rpm for 2 min and the supernatant was removed. The resin was washed two times with low salt buffer and one time with high salt buffer (20 mM Tris, pH 7.5, 500 mM NaCl, 0.5 mM EDTA, 5 mM beta-mercaptoethanol, protease inhibitors (complete mini, Roche) and phosphatase inhibitors (PhosSTOP mini, Roche). To elute the bound UCHL1, elution buffer (10 mM Tris, pH 7.5, 150 mM NaCl, 0.5 mM FDTA, 10% glycerol, 0.5% NP40, 5 mM beta-mercaptoethanol, 0.15 mg/ml 3×FLAG peptide (Sigma-Aldrich)) was added to the resin and incubated at 4° C. for 2.5 hours rotating. The resin was centrifuged at 4000 rpm for 30 seconds, and the supernatant containing purified FLAG-UCHL1 was removed and stored at −80° C.
UCHL1 Biochemical IC50 Assay
Dilution plates were prepared at 21 times the final concentration (2100 μM for a final concentration of 100 µM) in 50% DMSO in a 96-well polypropylene V-bottom plate (Greiner #651201). A typical 8-point dilution series to be 100, 30, 10, 3, 1, 0.3, 0.1, 0.03 μM final. Reactions were performed in duplicate in black 384 well plates (small volume, Greiner 784076) in a final reaction volume of 21 μl. Either 1 μl of 50% DMSO or diluted compound was added to the plate. UCHL1 was diluted in reaction buffer (20 mM Tris, pH 7.5, 100 mM NaCl, 0.05% Tween 20, 0.5 mg/ml BSA, 5 mM—beta mercaptoethanol) to the equivalent of 0.05 μl/well and 10 μl of diluted UCHL1 was added to the compound. Enzyme and compound were incubated for 30 min at room temp. Reactions were initiated by the addition of 50 nM of TAMRA labelled peptide linked to ubiquitin via an iso-peptide bond as fluorescence polarisation substrate. Reactions were read immediately after addition of substrate and following a 2 hr incubation at room temperature. Readings were performed on a Pherastar Plus (BMG Labtech). λ Excitation 540 nm; k Emission 590 nm.

Molecule | IC50 [nM]
Cc1nccc(-n2cnc(NC(=O)[C@H]3CCN(C#N)C3)c2)n1 [Example 176, (S)-1-cyano-N-(1-(2-methylpyrimidin-4-yl)-1H-imidazol-4-yl)pyrrolidine-3-carboxamide] | 1000 to 10000
N#CN1CC[C@H](C(=O)Nc2cccc(-c3ccccc3)n2)C1 [Example 55, (S)-1-cyano-N-(6-phenylpyridin-2-yl)pyrrolidine 3-carboxamide] | 1000 to 10000
N#CN1CCC(C(=O)Nc2ncc(-c3cccc(N)c3)s2)C1 (centres unmarked) [Example 110, N-(5-(3-aminophenyl)thiazol-2-yl)-1-cyanopyrrolidine-3-carboxamide] | 1000 to 10000
(S)-1-cyano-N-(isoquinolin-yl)pyrrolidine-3-carboxamide [Example 58] | 1000 to 10000
N#CN1CCC(C(=O)Nc2cc(-c3ccccc3)on2)C1 (centres unmarked) [Example 15, 1-cyano-N-(5-phenylisoxazol-3-yl)pyrrolidine carboxamide] | 1000 to 10000
N#CN1CC[C@H](C(=O)Nc2cc3cc(C(N)=O)ccc3cn2)C1 [Example 265, (S)-3-(1-cyanopyrrolidine-3-carboxamido)isoquinoline-6-carboxamide] | 1000 to 10000
N#CN1CC[C@H](C(=O)Nc2cn(CC3CCOCC3)cn2)C1 [Example 165, (S)-1-cyano-N-(1-((tetrahydro-2H-pyran-4-yl)methyl)-1H-imidazol-4-yl)pyrrolidine-3-carboxamide] | 1000 to 10000
CC[C@@H]1CN(C#N)C[C@H]1C(=O)Nc1cn(-c2ccccc2)cn1 [Example 87, (6)-1-cyano-4-ethyl-N-(1-phenyl-1H-imidazol-4-yl)pyrrolidine-3-carboxamide] | 1000 to 10000
C#Cc1ccc2cnc(NC(=O)[C@H]3CCN(C#N)C3)cc2c1 [Example 263, (S)-1-cyano-N-(6-ethynylisoquinolin-3-yl)pyrrolidine-3-carboxamide] | 1000 to 10000
N#CN1CC(C(=O)Nc2ncc(-c3ccccc3)s2)C2CC21 (centres unmarked) [Example 280, 2-cyano-N-(5-phenylthiazol-2-yl)-2-azabicyclo[3.1.0]hexane-4-carboxamide] | 1000 to 10000
N#CN1CC2CC2(C(=O)Nc2ncc(-c3ccccc3)s2)C1 (centres unmarked) [Example 279, 3-cyano-N-(5-phenylthiazol-2-yl)-3-azabicyclo[3.1.0]hexane-1-carboxamide] | 1000 to 10000
COc1ccnc(NC(=O)[C@H]2CCN(C#N)C2)c1 [Example 53, (S)-1-cyano-N-(4-methoxypyridin-2-yl)pyrrolidine-3-carboxamide] | 1000 to 10000
N#CN1CC[C@H](C(=O)Nc2ncc(-c3cccc4cn[nH]c34)s2)C1 [Example 215, (S)-N-(5-(1H-indazol-7-yl)thiazol-2-yl)-1-cyanopyrrolidine-3-carboxamide] | < 1000
Cc1oncc1-c1cc(-c2ccnc(NC(=O)[C@H]3CCN(C#N)C3)c2)ccn1 [Example 297, (S)-1-cyano-N-(2′-(5-methylisoxazol-4-yl)-[4-4′-bipyridin]-2-yl)pyrrolidine-3-carboxamide] | < 1000
Cc1cccc(-c2ccc(NC(=O)C3CCN(C#N)C3)nc2)c1 (centres unmarked) [Example 135, 1-cyano-N-(5-(m-tolyl)pyridin-2-yl)pyrrolidine-3-carboxamide] | 1000 to 10000
CC(=O)N1CCc2nc(NC(=O)[C@H]3CCN(C#N)C3)sc2C1 [Example 189, (S)—N-(5-acetyl-4,5,6,7-tetrahydrothiazolo[5,4-c]pyridin-2-yl)-1-cyanopyrrolidine-3-carboxamide] | < 1000

The remaining lines, values ahead:

IC50 [nM] | Molecule
< 1000 | N#Cc1ccc(-n2cnc(NC(=O)[C@H]3CCN(C#N)C3)c2)cc1C(F)(F)F [Example 309, (S)-1-cyano-N-(1-(4-cyano-3-(trifluoromethyl)phenyl)-1H-imidazol-4-yl)pyrrolidine-3-carboxamide]
< 1000 | CN1CCN(c2cnc(NC(=O)C3CCN(C#N)C3)s2)CC1 (centres unmarked) [Example 92, 1-cyano-N-(5-(4-methylpiperazin-1-yl)thiazol-2-yl)pyrrolidine-3-carboxamide]
< 1000 | COCCOc1ccc(C#N)c(-n2cnc(NC(=O)[C@H]3CCN(C#N)C3)c2)c1 [Example 244, (S)-1-cyano-N-(1-(2-cyano-5-(2-methoxyethoxy)phenyl)-1H-imidazol-4-yl)pyrrolidine-3-carboxamide]
< 1000 | N#CN1CC[C@H](C(=O)Nc2ncc(-c3cccc4[nH]ncc34)s2)C1 [Example 230, (S)—N-(5-(1H-indazol-4-yl)thiazol-2-yl)-1-cyanopyrrolidine-3-carboxamide]
< 1000 | CC(=O)Nc1ccc(-c2cnc(NC(=O)C3CCN(C#N)C3)s2)cc1 (centres unmarked) [Example 114, N-(5-(4-acetamidophenyl)thiazol-2-yl)-1-cyanopyrrolidine-3-carboxamide]
< 1000 | N#CN1CC[C@H](C(=O)Nc2ncc(-c3cccc(C(N)=O)c3)s2)C1 [Example 232, (S)-N-(5-(3-carbamoylphenyl)thiazol-2-yl)-1-cyanopyrrolidine-3-carboxamide]
< 1000 | N#CN1CC[C@H](C(=O)Nc2cn(-c3ccnc4ccccc34)cn2)C1 [Example 305, (S)-1-cyano-N-(1-(quinolin-4-yl)-1H-imidazol-4-yl)pyrrolidine-3-carboxamide]
< 1000 | N#CN1CC[C@H](C(=O)Nc2ncc(-c3ccncc3)s2)C1 [Example 69, (S)-1-cyano-N-(5-(pyridin-4-yl)thiazol-2-yl)pyrrolidine-3-carboxamide]
< 1000 | CNC(=O)c1cccc(-c2cnc(NC(=O)[C@H]3CCN(C#N)C3)s2)c1 [Example 233, (S)-1-cyano-N-(5-(3-(methylcarbamoyl)phenyl)thiazol-2-yl)pyrrolidine-3-carboxamide]
< 1000 | N#CN1CC[C@H](C(=O)Nc2nc3c(s2)CN(S(=O)(=O)c2ccccc2)CC3)C1 [Example 204, (S)-1-cyano-N-(5-(phenylsulfonyl)-4,5,6,7-tetrahydrothiazolo[5,4-c]pyridin-2-yl)pyrrolidine-3-carboxamide]
< 1000 | N#CN1C[C@@H](C(F)(F)F)[C@H](C(=O)Nc2ncc(-c3ccccc3)s2)C1 [Example 281, (3S, 4S)-1-cyano-N-(5-phenylthiazol-2-yl)-4-(trifluoromethyl)pyrrolidine-3-carboxamide]
< 1000 | CNC(=O)c1ccc(-n2cnc(NC(=O)[C@H]3CCN(C#N)C3)c2)cc1 [Example 155, (S)-1-cyano-N-(1-(4-(methylcarbamoyl)phenyl)-1H-imidazol-4-yl)pyrrolidine-3-carboxamide]
< 1000 | CS(=O)(=O)Nc1cccc(-c2cnc(NC(=O)C3CCN(C#N)C3)s2)c1 (centres unmarked) [Example 116, 1-cyano-N-(5-(3-(methyl-sulfonamido)phenyl)thiazol-2-yl)pyrrolidine-3-carboxamide]
< 1000 | N#CN1CCC(C(=O)Nc2ncc(/C=C/C3CC3)s2)C1 (centres unmarked) [Example 113, (E)-1-cyano-N-(5-(2-cyclopropylvinyl)thiazol-2-yl)pyrrolidine-3-carboxamide]
< 1000 | N#Cc1ccc(-c2cnc(NC(=O)[C@H]3CCN(C#N)C3)s2)cc1OC(F)(F)F [Example 219, (S)-1-cyano-N-(5-(4-cyano-3-(trifluoromethoxy)phenyl)thiazol-2-yl)pyrrolidine-3-carboxamide]
< 1000 | Cc1nc(-c2ccc3nc(NC(=O)[C@H]4CCN(C#N)C4)cn3c2)no1 [Example 209, (S)-1-cyano-N-(6-(5-methyl-1,2,4-oxadiazol-3-yl)imidazo[1,2-a]pyridin-2-yl)pyrrolidine-3-carboxamide]
